Source: patent US8679776B2, “Activatable dyes” (University of Massachusetts, priority 2007, dated 2014)
One block for each compound: values may come before it.

How the values were obtained:
Transferrin = biological target: T1, Transferrin (Homo sapiens, UniProt P02787); test: Labeling of transferrin with caged dye, SDS-PAGE imaged before and after photoactivation; settings: for near-IR fluorescence before photoactivation / near-IR fluorescence after photoactivation: 630 nm excitation, 670 nm long pass filter; for near-IR fluorescence after photoactivation: hand-held longwave UV lamp for 1 min
T1 construct: purchased Sigma-Aldrich
Method: FIG. 20 is an SDS-PAGE gel of transferrin labeled with a caged oxazine dye, imaged before and after photoactivation. Transferrin in lanes 1-3 is labeled with NVOC-MR121 (25). Lanes 4-6 are labeled with tetramethyl-rhodamine (TMR).
Transferrin (Sigma-Aldrich®, 5 mg) was dissolved in 0.5 ml of 0.1M NaHCO3, pH 8.3. The caged oxazine dye 25 (0.2 mg) in 0.02 ml of DMSO and added to the transferrin solution and incubated at room temperature for one hour. The labeled protein was separated from the dye on a PD-10 column, and analyzed by SDS-PAGE (FIG. 20). The transferrin conjugate was initially non-fluorescent (FIG. 20a).

[1] = Photoactivation of NVOC-Oxazine 16 in vitro (acetonitrile solution, long-wave UV); type: physicochemical
Description: When novel, non-fluorescent caged dye (16) is irradiated with long-wave UV light (about 360 nm), the NVOC group is photolytically removed, and rapidly decarboxylates to form the oxazine 1 leuco dye (15). The non-fluorescent leuco dye rapidly reacts with oxygen in solution to generate the brightly fluorescent oxazine 1 dye (14). […] In such an evaluation, maximal emission was observed after less than four minutes using a hand-held longwave UV lamp. Irradiation in a fluorescence microscope, with either arc lamp or laser illumination, photoactivates this dye in less than 1 second due to the much higher photon flux through the microscope objective.
Referring to FIGS. 15A and 15B, NVOC-Oxazine 16 was dissolved in acetonitrile (2 mL) and placed in a fluorescence cuvette. The rate of photo-uncaging was monitored by continuous excitation at 365 nm and emission detection at 665 nm in a SPEX Fluoromax-3. Under these conditions, fluorescence activation reached a maximum in approximately two minutes.

CHO-K1 cells = test: Photoactivation in live mammalian tissue culture cells; type: cell-based
Method: Photoactivation of NVOC-MR121 in live CHO-K1 cells before (a) and after (b, c) brief exposure to DAPI-filtered light (˜100 ms). In (b) the field was limited to two cells, while in (c) the entire field was illuminated (40× objective). Cells were imaged with a Cy5 filter set.
Referring to FIGS. 16A (before) and 16B (after photoactivation), CHO-K1 cells were incubated with 1 μM of NVOC-Oxazine 16 for one hour, then imaged on a fluorescence microscope at 40× with a Cy5 filter set (Zeiss Axiovert 200M). […] All of these latent fluorophores are chemically stable in cells, and can be efficiently photoactivated 24 hours after initial incubation.

T1 sequence (P02787 20-698, species assumed): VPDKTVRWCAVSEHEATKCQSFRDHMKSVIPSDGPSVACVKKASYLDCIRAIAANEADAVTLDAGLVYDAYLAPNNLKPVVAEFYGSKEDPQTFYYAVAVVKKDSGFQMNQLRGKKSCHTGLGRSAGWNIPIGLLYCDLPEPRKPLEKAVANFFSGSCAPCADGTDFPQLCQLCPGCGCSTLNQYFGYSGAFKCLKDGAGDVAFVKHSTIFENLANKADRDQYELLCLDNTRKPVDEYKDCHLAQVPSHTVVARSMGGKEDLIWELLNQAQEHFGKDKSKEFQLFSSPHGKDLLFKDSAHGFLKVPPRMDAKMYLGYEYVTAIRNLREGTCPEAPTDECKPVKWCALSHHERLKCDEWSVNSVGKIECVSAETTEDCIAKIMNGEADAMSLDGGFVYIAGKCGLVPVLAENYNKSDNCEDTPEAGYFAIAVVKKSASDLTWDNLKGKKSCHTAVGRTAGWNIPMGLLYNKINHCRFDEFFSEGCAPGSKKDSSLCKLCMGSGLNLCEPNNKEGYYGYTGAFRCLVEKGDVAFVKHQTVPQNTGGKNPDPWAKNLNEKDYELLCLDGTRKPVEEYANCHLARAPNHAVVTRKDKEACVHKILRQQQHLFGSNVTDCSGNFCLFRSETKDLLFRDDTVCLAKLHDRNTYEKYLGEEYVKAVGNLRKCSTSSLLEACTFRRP

Compound: TMR-Tf: transferrin labeled with tetramethyl-rhodamine (TMR) [reference compound]
fluorescence before photoactivation, TMR channel (Transferrin; SDS-PAGE, 520 nm excitation and 575DF20 filter): readily visible

Compound: transferrin conjugate: transferrin labeled with caged oxazine dye NVOC-MR121 NHS ester 25
near-IR fluorescence before photoactivation (Transferrin; SDS-PAGE): non-fluorescent
near-IR fluorescence before photoactivation (Transferrin; SDS-PAGE, listed as labeled transferrin): No near-IR fluorescence is visible
near-IR fluorescence after photoactivation (Transferrin): bright near-IR fluorescence
near-IR fluorescence after photoactivation (Transferrin; listed as labeled transferrin): brightly fluorescent in the near-IR

maximal emission ([1]; active dye generated by uncaging): about 665 nm
Compound: CCN(CC)c1ccc2nc3ccc(=[N+](CC)CC)cc-3oc2c1.[O-][Cl+3]([O-])([O-])[O-] [oxazine 1, reference compound]

cell permeability (CHO-K1 cells): cell-permeable
Compound: NVOC-Oxazine [Compound 16]
cellular fluorescence after brief exposure to DAPI-filtered light (CHO-K1 cells; 1 μM, one hour incubation, 365 nm, <1 second, Cy5 filter set): dramatic increase in cellular fluorescence
time to maximal emission after exposure to long-wave UV light ([1]; acetonitrile solution, hand-held longwave UV lamp, emission about 665 nm): less than four
time for fluorescence activation to reach a maximum ([1]; acetonitrile, continuous excitation at 365 nm, emission detection at 665 nm, SPEX Fluoromax-3): approximately two
time to photoactivate in a fluorescence microscope ([1]; arc lamp or laser illumination through the microscope objective): less than 1 second

Compound: Bis-NH NVOC-Oxazine [Compound 41]
staining pattern after photoactivation (CHO-K1 cells): more diffuse staining
